Consider one molecule from patent US11421001B2, “Template-fixed peptidomimetics” (UNIVERSITAET ZUERICH, priority 2007, dated 2022).

Positions of bridges follow the written chain, without caps; N, C: chain ends. Non-standard residues stand in square brackets, D forms with d. Residues, ends and D or L forms follow the SMILES beside them. Dab = NCC[C@H](N)C(=O)O Some results are limits rather than exact numbers.

Data set [1] can be described thus: Plasma stability, rat plasma. It counts as in vitro ADME. The following applies: read-out: Stability rat Plasma t1/2.
Data set [2] is described as follows: Plasma stability, human plasma. It is filed as in vitro ADME. The following applies: read-out: Stability human Plasma t1/2.
Data set [3] has as its system CCRF-CEM cells, gradient of SDF-1. Nature of the data set: Chemotactic assay (cell migration assay). As to conditions: 1 nM SDF-1, 4 hours. It is filed as cell-based. As for the experimental part: 2.7. Chemotactic Assay (Cell Migration Assay)
The chemotactic response of CCRF-CEM cells to a gradient of stromal cell-derived factor 1α (SDF-1) was measured using disposable assay plates from Neuroprobe (5μ pore size) (Gaithersburg, Md.), according to the manufacturer's directions and references therein [especially ref. 8, below]. Briefly, one […] flask was washed once with Dubecco's phosphate buffered saline (DPBS), and trypsinized for 10 minutes or until cells had lifted. The trypsin was neutralized by the addition of fresh medium containing serum and the cells were pelleted, washed once in DPBS, and resuspended at 1-0.5×10^7 cells/ml in RPMI+0.5% bovine serum albumin (BSA). 45 μl of cell suspension were mixed with 5 μl of 10-fold concentrated PEM peptide diluted in the same assay medium. 35 μl of this mixture were applied to the top of the assay filter. […] The optical absorbance at 595 nm (ABS595) was read using a Tecan Genios plate reader with Magellan software. The number of cells migrated was determined by comparing ABS595 values against a standard curve generated with a known number of cells in the assay plate and were plotted against SDF-1 concentration to obtain a sigmoidal curve and to determine the IC50 values. The values for IC50 were determined using the Trendline function in Microsoft Excel by fitting a logarithmic curve to the averaged datapoints.

The next data set can be described thus: FIGS-Assay. It counts as cell-based. The following applies: 48 hours of co-cultivation; ONPG read out at 405 nm. As for the experimental part: The assay was performed according to ref. 5, below. Stock dilutions of the peptides (10 μM) were prepared by dissolving in […] at room temperature. Stock solutions were kept at +4° C., light protected. Working dilutions were prepared extemporaneously by serial dilution in Phosphate Buffered Saline (PBS) and added in a final volume of 10 μl directly to the cell cultures. After 48 hours of co-cultivation the cultures were rinsed with PBS and then exposed to glutaraldehyde/formaldehyde (0.2%/2%) in PBS for five minutes. For photometric quantification the fixed cultures were subsequently incubated with ortho-nitro-phenyl-galactopyranoside (ONPG) as a β-galactosidase substrate, which was enzymatically converted into the chromophore ortho-nitrophenol (ONP). The read out is directly obtained by measuring optical density of wells at 405 nm in an iEMS 96well-plate reader.
‘CCR5’ cells were cultured in DMEM medium with […] glucose, 10% fetal bovine serum (FBS), supplemented with 50 U/ml Penicillin and 50 μg/ml Streptomycin (Pen/Strept.). Hut/4-3 cells were maintained in RPMI medium, 10% FBS, supplemented with Pen/Strept. and 10 mM HEPES. HELA cells and CCRF-CEM cells were maintained in RPMI1640 plus 5% FBS, Pen/Strept and 2 mM L-Glutamine. Cos-7 cells were grown in DMEM medium with […] glucose supplemented with 10% FCS, Pen/Strept. and 2 mM L-Glutamine. […]

A short description of data set [4]: Maximum tolerated dose in mice. It is filed as in vivo, mouse. The following applies: CD1 mice, 120 mg/kg bolus, i.v, ip and sc. As for the experimental part:
3.1. Maximum Tolerated Dose in Mice
a) The compound of Example 1, dispersed in Water for Injection or 0.9% physiological saline), was administered, in the preliminary study, by i.v. injection at dose levels of 35, 50, 70, 85, 100, 150, 250 or 500 mg/kg to groups consisting of one male and one female mouse (Crl:CD1(ICR)). In addition, two groups comprising two male and two female mice received dose levels of 90 and 100 mg/kg, respectively, and the 50 mg/kg dose level was repeated in a group comprising one male and one female.
b) Maximum tolerated dose studies (MTD) carried out with the compound of Example 2 using CD1 mice (3 mice/group) and was performed using i.v, ip and sc. administration.

Data set [5] deals with hematopoietic progenitors (CFU-GM). The data set can be described thus: Stem cell mobilisation, mice model (CFU-GM). It is filed as in vivo, mouse. As to conditions: C3H/HeJ mice, 5 mg/kg s.c. From the text: The aim of the study was to evaluate the ability of the compound of Example 1 and Example 2 to mobilize hematopoietic progenitors from mouse bone marrow to peripheral blood using in-vitro hematopoietic colony assays. In humans, accurate information about progenitor cell mobilization is provided by the colony forming unit granulocyte-monocyte (CFU-GM) assay or by determining the abundance of CD34(+) cells by FACS analysis (see ref. 10 below). In mice, CD34 is not a useful marker for stem cells; instead the CFU-GM is more commonly used (see ref. 11 below).
In order to assess the ability of the compounds of Example 1 and Example 2 to mobilize murine stem cells (CFU-GM) C3H/HeJ female mice (Jackson Laboratory) were injected s.c. with 5 mg/k, of the compounds of Example 1 and of Example 2 and as reference AMD3100 (Broxmeyer, et al, J Exp Med 201, 1307-1318), (currently undergoing Phase III clinical trials) for stem cell mobilisation. Peripheral blood samples from 5 animals per test group were collected at each time point and nucleated cell counts performed as standard assays.

As usually defined, the IC50 is the concentration at which inhibition is half-maximal. `C[C@@H]1NC(=O)[C@H](CO)NC(=O)[C@@H]2CSSC[C@H](NC(=O)[C@H](Cc3ccc(O)cc3)NC(=O)[C@H](CCCNC(=N)N)NC(=O)[C@H](CCN)NC(=O)[C@H]3CCCN3C1=O)C(=O)N[C@@H](Cc1ccc(O)cc1)C(=O)N[C@@H](CCC(N)=O)C(=O)N[C@@H](CCCCN)C(=O)N1CCC[C@@H]1C(=O)N1CCC[C@H]1C(=O)N[C@@H](Cc1ccc(O)cc1)C(=O)N[C@@H](Cc1c[nH]cn1)C(=O)N[C@@H](Cc1ccc(O)cc1)C(=O)N2` [Example 2] (cyclo(YHYCSA[dP][Dab]RYCYQK[dP]P); disulfide 4-11): the half-life at 10 µM in data set [1] and in data set [2] was above 5 h each time. Besides, the IC50 in data set [3] was determined as 0.5 µM; in “FIGS-Assay”, 24.7 nM. Further, in data set [4], the “survival at highest dose tested” value is recorded as “all animals survived”. In addition, the “symptoms at highest dose tested” value in data set [4] is reported as “only mild symptoms were observed”. Besides, the “time of maximal effect on CFU-GM blood cell numbers” value in data set [5] is 240 min. In data set [5] (compared to control mice), the “effect on CFU-GM blood cell numbers / progenitors over time” value is “increased the CFU-GM blood cell numbers up to six hours post administration”.
